Results from PubChem BioAssay (NCI).
Where “and” joins values, the source holds several entries; their conditions need not be identical. Identical values can stand only once.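 Dose response: 5 concentrations. Exposure: 48 h. Format: 96-well plates. Endpoint: linear interpolation; highest concentration if not reached. GI50 is the concentration that inhibits growth by half. TGI marks complete inhibition of growth.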

Legend:
Experiment in all cases: DTP human tumour cell line panel, 48 h
[1] = test system: 786-0 renal
[2] = test system: HCT-15 colon
[3] = test system: HOP-92 NSCLC
[4] = test system: HT29 colon
[5] = test system: IGROV1 ovarian
[6] = test system: MALME-3M melanoma
[7] = test system: SF-268 CNS
[8] = test system: SK-MEL-2 melanoma
[9] = test system: SN12C renal
[10] = test system: SNB-19 CNS

SMILES	GI50 [1]	TGI [1]	GI50 [2]	TGI [2]	GI50 [3]	TGI [3]	GI50 [4]	TGI [4]	GI50 [5]	TGI [5]	GI50 [6]	TGI [6]	GI50 [7]	TGI [7]	GI50 [8]	TGI [8]	GI50 [9]	TGI [9]	GI50 [10]	TGI [10]
C[C@@H]1[C@H]2[C@H](C=C3[C@@H]4CC[C@H]5Cc6nc7c(nc6C[C@]5(C)[C@H]4C[C@@H](O)[C@@]32C)C[C@@H]2CC[C@H]3C4=C[C@@H]5O[C@@]6(CC[C@](C)(CO)O6)[C@@H](C)[C@@]5(O)[C@@]4(C)[C@H](O)C[C@@H]3[C@@]2(C)C7)O[C@]12CCC(C)(C)O2	0.148 µM	0.752 µM	0.43 µM	8.14 µM	0.716 µM	13.3 µM	0.34 µM	2.47 µM	2.16 µM	62.8 µM	1.58 µM	22.7 µM	0.756 µM	31.6 µM	0.9 µM	18 µM	11.6 µM	> 70.3 µM	0.653 µM	7.28 µM
CCOc1ccccc1NC(=O)C(=O)C(C(=O)c1ccc2ccccc2c1)C1OC(=O)c2ccccc21 (stereo unspecified)		21.1 µM		33.6 µM		38.1 µM		76.4 µM		35.2 µM		30.2 µM		53.1 µM		29.4 µM		37.4 µM		22 µM
NC1=NN(c2ccccc2)C(=O)C1/C(=N\NC(=O)c1cc2ccccc2cc1O)C(=O)Nc1nc([N+](=O)[O-])cs1 (stereo unspecified)		> 100 µM		> 74.1 µM		87.5 µM		> 93 µM		94.4 µM		> 100 µM		> 100 µM		> 86.6 µM		> 100 µM		> 100 µM
COc1cc2cn3c4ccc(O)cc4nc(N)c3c2cc1OC	0.675 µM	3.05 µM	0.721 µM	12.1 µM	0.669 µM	8.06 µM	0.714 µM	4.57 µM	0.706 µM	15.1 µM	0.792 µM	16.8 µM	0.149 µM	15.1 µM	1.89 µM	7.61 µM	0.295 µM	13 µM	0.211 µM	16.7 µM
COc1cc(-c2nc3ccccc3[nH]2)ccc1OCC(=O)N=Nc1c(O)[nH]c2ccc(Cl)cc12	1.84 µM	3.53 µM	4.9 µM	> 100 µM	1.5 µM	3.07 µM	1.62 µM	3.48 µM	1.52 µM	3.05 µM	1.53 µM	2.93 µM	1.66 µM	3.34 µM	1.76 µM	3.34 µM	1.61 µM	3.06 µM	1.63 µM	3.04 µM
Cc1cc(O)c(C2=NN(c3ccc(S(N)(=O)=O)cc3)C(c3ccccc3O)C2)cc1Cl (stereo unspecified)	2.04 µM	3.88 µM	2.39 µM	6.25 µM	1.46 µM	6.51 µM	2.07 µM	4.07 µM	1.07 µM	5.66 µM	2.2 µM	6.7 µM	2.64 µM	8.06 µM	4.85 µM	11.6 µM	2.8 µM	8.65 µM	3.5 µM	11.4 µM
C[n+]1c2cc(N)ccc2cc2ccc(N)cc21 (tested in a mixture with another compound)	0.32 µM	2.29 µM	0.512 µM	4.71 µM	0.273 µM	1.09 µM	0.431 µM	3.87 µM	0.14 µM	1.48 µM	0.258 µM	1.04 µM	0.265 µM	1.29 µM	1.62 µM	15.3 µM	0.326 µM	1.75 µM	0.578 µM	3.94 µM
CCc1nc(-n2c(CC)nc3ccccc3c2=O)nc(N)c1-c1ccc(Cl)cc1	8.13 µM	> 100 µM	8.91 µM	> 100 µM	18 µM	99.9 µM	16.2 µM	> 100 µM	48.5 µM	> 100 µM	> 80.1 µM	> 100 µM	> 40.4 µM	> 100 µM	> 100 µM	> 100 µM	> 46.1 µM	> 100 µM	> 81.1 µM	> 100 µM
C/C=C/C(=O)[C@@H](O)C(C)C		> 100 µM		> 100 µM		> 100 µM		> 100 µM		> 100 µM		> 100 µM		> 100 µM		> 100 µM		> 100 µM		> 100 µM
Cc1c2cnccc2c(C)c2c1c1cc(C(=O)O)ccc1n2C	1.23 µM	11.8 µM	0.804 µM	7.82 µM	0.913 µM	5.95 µM	0.856 µM	6.15 µM	0.911 µM	9.84 µM	0.942 µM	2.97 µM	0.937 µM	4.81 µM	1.38 µM	4.03 µM	0.772 µM	10.2 µM	0.738 µM	10.3 µM
COc1ccc(C(=O)Nc2ccc(S(=O)(=O)NCC(=O)O)cc2)cc1		> 100 µM		> 100 µM		> 100 µM		> 100 µM		> 100 µM		> 100 µM		> 100 µM		> 100 µM		> 100 µM		> 100 µM
O=C(Nc1ccc(Cl)cc1F)c1cc(F)ccc1O	2.73 µM	9.73 µM	1.46 µM	9.62 µM	0.196 µM	0.874 µM	3.24 µM	> 34 µM	0.597 µM	17.2 µM	0.41 µM	2.27 µM	0.854 µM	12.1 µM	0.519 µM	3.12 µM	0.643 µM	5.64 µM	0.669 µM	18.6 µM
COc1cccc2c1C(=O)c1c(O)c3c(c(O)c1C2=O)C[C@@](O)(C(=O)CO)C[C@@H]3OC1CC(OC(C)=O)C(OC(C)=O)C(C)O1 (stereo partly specified)	0.272 µM	1.41 µM	0.491 µM	6.75 µM	0.239 µM		1.02 µM	> 32.1 µM		3.91 µM	0.502 µM	2.19 µM	0.287 µM	4.46 µM	1.87 µM	4.95 µM	0.255 µM	5.87 µM	0.496 µM	> 100 µM
Cc1cc(C(=O)N[C@@H](CCC(=O)O)C(=O)O)sc1CC[C@@H]1CNc2nc(N)[nH]c(=O)c2C1	< 0.01 µM	> 100 µM	0.042 µM	> 100 µM	0.0592 µM	> 100 µM	< 0.0178 µM	> 100 µM	0.0463 µM	> 100 µM	0.0398 µM	> 100 µM	0.0372 µM	> 100 µM	7.78 µM	> 100 µM	0.0253 µM	> 100 µM	0.0853 µM	> 100 µM
O=C(N[C@@H]1C=CCC[C@@H]1c1ccccc1)OCc1ccccc1		39.7 µM		38.3 µM		32.1 µM		53.1 µM		68.9 µM		37 µM		59 µM		32.4 µM		31.1 µM		99.6 µM
CN1C(=O)N(C)C2C1NN=c1s/c(=C\c3c[nH]c4ccccc34)c(=O)n12 (stereo unspecified)	0.125 µM	> 100 µM	0.0365 µM	> 100 µM	0.36 µM	> 100 µM	0.0377 µM	> 100 µM	0.0654 µM	> 100 µM	0.0689 µM	> 100 µM	0.588 µM	> 100 µM	34.6 µM	> 100 µM	0.0714 µM	> 100 µM	0.0443 µM	> 100 µM
CC(N)(Cc1c[nH]c2ccccc12)C(=O)O (stereo unspecified)	> 2500 µM	> 2500 µM	> 2500 µM	> 2500 µM	1800 µM	> 2500 µM	> 2500 µM	> 2500 µM	> 2500 µM	> 2500 µM	522 µM	> 2500 µM	> 2500 µM	> 2500 µM	> 2500 µM	> 2500 µM	> 2500 µM	> 2500 µM	> 2500 µM	> 2500 µM
Cc1cc(Nc2cc(CN3CCOCC3)c3nc(C)c(Cc4ccc(Cl)cc4F)n3n2)n[nH]1	1.67 µM	6.18 µM	2.62 µM	14.9 µM	1.65 µM	5.01 µM	1.44 µM	12.3 µM	2.15 µM	5.57 µM	4.35 µM	20.6 µM	1.03 µM	4.65 µM	2.37 µM	7.64 µM	1.14 µM	15.9 µM	6.31 µM	19 µM
COc1ccc(S(=O)(=O)NC2=NCCN2C(=S)SN2CCn3c2nsc3=S)cc1OC	25.5 µM	63.9 µM	26.2 µM	> 100 µM	23.2 µM	48.6 µM	25.7 µM	94.4 µM	23.2 µM	> 100 µM	16.7 µM	43.7 µM	23.2 µM	79.2 µM	24.1 µM	75.1 µM	22.6 µM	54.9 µM	26.6 µM	> 100 µM
COc1ccc2[nH]c3c(C)c4cc[n+](C)cc4c(C)c3c2c1	0.267 µM and 0.161 µM and 0.898 µM	5.49 µM		> 100 µM and 110 µM and > 250 µM	0.239 µM and 1.55 µM		2.52 µM and 1.97 µM	60.2 µM [middle of 4 runs]	1.01 µM and 1.13 µM		0.624 µM and 2.38 µM		0.0504 µM and 0.0385 µM		4.87 µM	13.8 µM [middle of 4 runs]	0.0483 µM and 0.0691 µM	797 nM [middle of 4 runs]	0.103 µM and 0.322 µM	1.04 µM [middle of 4 runs]
CC(C)(C)OC(=O)N1CC(Cn2cc(C(F)(F)F)c3c(Cl)ncnc32)C1	16.8 µM	36.7 µM	2 µM	4.4 µM	4.5 µM	21.4 µM	2.6 µM	6.67 µM	1.86 µM	3.92 µM	12.4 µM	26.6 µM	1.75 µM	3.4 µM	1.84 µM	3.47 µM	2.32 µM	6.12 µM	1.8 µM	3.33 µM
S=c1nc[nH]c2nc[nH]c12	0.7 µM and 5.34 µM	> 750 µM	3.4 µM and 18.2 µM	> 100 µM and 629 µM and > 750 µM	0.578 µM	82.2 µM and 285 µM	22.5 µM	> 750 µM	23.3 µM	> 100 µM and 695 µM and > 750 µM	5.28 µM	> 100 µM and 298 µM and > 750 µM	12.3 µM	> 100 µM and 681 µM and > 750 µM	> 100 µM and 26.2 µM	> 100 µM and 664 µM and > 750 µM		> 100 µM and 680 µM and > 750 µM	65.9 µM and 213 µM	> 750 µM
O=C1c2ccc3c4c(ccc(c24)C(=O)N1CCCNCc1ccccc1)C(=O)N(CCCNCc1ccccc1)C3=O	0.251 µM	0.837 µM	0.116 µM	0.316 µM	0.199 µM	0.585 µM	0.0421 µM	0.231 µM	0.11 µM	0.405 µM	0.152 µM	0.298 µM	0.173 µM	0.531 µM	0.178 µM	0.363 µM	0.145 µM	0.308 µM	0.13 µM	0.314 µM
COc1cc(/C=C2\CCCC3C2=Nc2ccccc2NC3c2cc(OC)c(OC)c(OC)c2)cc(OC)c1OC (stereo unspecified)	2.55 µM	8 µM	1.77 µM	4.08 µM	1.83 µM	9.84 µM	1.21 µM		4.1 µM	18.5 µM	1.56 µM	6.56 µM	2.02 µM	71.5 µM	3.1 µM	8.33 µM	2.1 µM	14 µM	8.37 µM	> 100 µM
CN(C)CCNC(=O)c1cccc2ccc(-c3cccnc3)nc12		> 100 µM		17.4 µM		14.4 µM		31.9 µM		25.6 µM		16.8 µM		26.3 µM		21.4 µM		23.1 µM		22.6 µM
COc1ccc2[nH]c(-c3ccccc3)c(C=C(C#N)C#N)c2c1	6.63 µM	> 100 µM	3.23 µM	> 100 µM	2.4 µM	36.4 µM	3.13 µM	> 100 µM	8.35 µM	> 100 µM	4.41 µM	> 100 µM	8.27 µM	> 100 µM	5.87 µM	> 100 µM	4.67 µM	> 100 µM	6.04 µM	> 100 µM
